Read-outs that look alike come from different tables or passages of the source.
Test: Ataluren glucuronidation kinetics, human intestinal microsomes
Type: in vitro ADME
Conditions: for CLint,u,UGT (scaled) / K m / K m, u / V max: HIM; for CLint,u,UGT (scaled): 20.6 mg protein/g tissue; for K m / K m, u / V max: mean ± SE; for K m / K m, u / V max / fraction unbound at 15 min: n = 3; for fraction unbound at 15 min / microsomal CLint: human, pH 7.5, HIM; for fraction unbound at 15 min: pooled human intestinal microsomes incubation mixture, mean ± SD, read-out: fu,inc; for microsomal CLint: pooled human intestinal microsomes, read-out: CLint,u,UGT
Protocol: Ataluren at 0.5, 2.5, 12.5, 25, 50, 100, 200, and 400 µmol/L, was incubated (n = 3) at 37°C with recombinant human UGT1A9 and with pooled microsomes from human liver, kidney, and intestine (0.025 mg protein/mL, preactivated with alamethicin at 20 µg/mL) in Tris‐HCl buffer (0.1 mol/L, pH 7.5), in the presence of 1 mmol/L EDTA, 5 mmol/L MgCl2, with or without 0.5%, 1%, or 2% BSA. The incubation (100 µL final volume with 0.5% DMSO) was started by adding an equal volume of UDPGA (5 mmol/L) in Tris‐HCl buffer (0.1 mol/L, pH 7.5). After 30 minutes incubation, the incubation mixtures were combined with 0.3 mL of an internal standard solution in acetonitrile with 1% formic acid, followed by membrane plate filtration. The filtrates were used for LC‐MS/MS analysis to quantify the formation of ataluren‐O‐1β‐acyl glucuronide. Detailed LC‐MS/MS conditions are summarized in LC‐MS/MS Analysis section. Ataluren acyl glucuronide formation rate after 30 minutes incubation was calculated using the amount of metabolite formed (pmol) divided by the protein amount in the incubation sample (0.0025 mg) and the incubation time (30 minutes). Ataluren glucuronidation kinetic parameters were determined with and without adjusting BSA binding by nonlinear regression (GraphPad Prism, 5version 5.04, GraphPad Software, Inc.) using Michaelis‐Menten equation which was the best fit compared with other models. The intrinsic clearance was calculated as CLint = Vmax/Km. In order to compare unbound intrinsic clearance by glucuronidation (CLint,u,UGT) in different tissues, CLint,u,UGT was expressed per gram of tissue by correcting the values for the microsomal protein yield, resulting in scaled CLint,u,UGT. Microsomal protein yields of 40.0, 12.8, and 20.6 mg protein/g tissue were used for hepatic, renal, and intestinal data, respectively. ^26
The high‐throughput membrane ultrafiltration method ^27 was used to determine the fraction unbound in the incubation (n = 3). Incubation mixtures and procedures were essentially the same as the above except that UDPGA (5 mmol/L) was replaced with Tris‐HCl buffer (0.1 mol/L, pH 7.5). After 15 minutes incubation, aliquot was transferred to a Millipore Multiscreen Ultracel‐10 filter plate (10 kDa molecular mass cut off; EMD Millipore). The plate was centrifuged at 37°C and 3710 g. After 30 minutes centrifugation, aliquots of ultrafiltrates and incubation mixtures prior to ultrafiltration were quenched with an internal standard solution in acetonitrile, followed by membrane plate filtration. The filtrates were used for LC‐MS/MS analysis to quantify the concentration of ataluren. The same LC‐MS/MS conditions described above are summarized in LC‐MS/MS Analysis section. The free fraction = Cu/Cm, where Cu is the concentration of ataluren in the ultrafiltrate and Cm is the concentration of ataluren in the incubation system before centrifugation. Unbound Km (Km, u) was recalculated by applying Michaelis‐Menten equation using free ataluren concentrations after correcting BSA binding at each ataluren and BSA concentration level.
Quantification of ataluren‐O‐1β‐acyl glucuronide formation was conducted on an Accela pump and a PAL autosampler equipped with a TSQ Quantum Ultra mass spectrometer (Thermo Fisher Scientific). A Waters Acquity BEH column (C18, 1.7 µm, 50 × 2.1 mm; Waters Cooperation) was used and maintained at 50°C. The mobile phases were 0.1% formic acid in water (A) and acetonitrile (B). The flow rate was 0.6 mL/min and gradient program was as follows: linear gradient from 0% B to 95% B in 0.5 minutes and hold isocratic at 95% B for 1 minute; linear gradient from 95% B to 0% B in 0.1 minutes and hold isocratic at 0% B for 0.4 minutes. TSQ Quantum Ultra mass spectrometer was equipped with a heated electrospray ionization source operated in negative‐ion mode with a vaporizer temperature of 350°C, capillary temperature of 380°C, and spray voltage of 3 kV. […]

O=C(O)c1cccc(-c2noc(-c3ccccc3F)n2)c1 [ataluren, Ataluren]
CLint,u,UGT (scaled) (0% BSA): 0.974 mL/min/g of tissue | K m (0% BSA): 15.8 ± 3.35 µM | K m, u (0% BSA): 15.8 ± 3.10 µM | V max (0% BSA): 747 ± 32.7 pmol/min/mg | CLint,u,UGT (scaled) (0.5% BSA): 3.38 mL/min/g of tissue | K m (0.5% BSA): 43.8 ± 6.88 µM | K m, u (0.5% BSA): 4.03 ± 0.646 µM | V max (0.5% BSA): 660 ± 28.3 pmol/min/mg | CLint,u,UGT (scaled) (1% BSA): 3.64 mL/min/g of tissue | K m (1% BSA): 82.4 ± 11.3 µM | K m, u (1% BSA): 4.02 ± 0.544 µM | V max (1% BSA): 711 ± 31.2 pmol/min/mg | CLint,u,UGT (scaled) (2% BSA): 3.39 mL/min/g of tissue | K m (2% BSA): 145 ± 22.0 µM | K m, u (2% BSA): 4.74 ± 0.835 µM | V max (2% BSA): 767 ± 54.6 pmol/min/mg | maximal effect of BSA on CLint,u (increase) (human intestine microsomes, with vs without BSA): ~3.7 fold | fraction unbound at 15 min (0% BSA): 1 ± 0.137 | fraction unbound at 15 min (0.5% BSA): 0.1 ± 0.0021 | fraction unbound at 15 min (1% BSA): 0.056 ± 0.002 | fraction unbound at 15 min (2% BSA): 0.036 ± 0.002 | microsomal CLint (0% BSA): 47.3 µL/min/mg | microsomal CLint (0.5% BSA): 164 µL/min/mg | microsomal CLint (1% BSA): 177 µL/min/mg | microsomal CLint (2% BSA): 164 µL/min/mg

From article PMC7083565, “In vitro metabolism, reaction phenotyping, enzyme kinetics, CYP inhibition and induction potential of ataluren” (Pharmacology Research & Perspectives, 2020)
